The values that follow come from the NIST ThermoML archive (doi:10.1016/j.fluid.2018.01.017).

Data set [1] in a line: xn = mol fraction of the nth substance listed. The conditions noted are these: 298.15 K, 86.6 kPa, Liquid; for speed of sound: Anton Parr, DSA 5000 densimeter and speed of sound analyzer; for mass density: Vibrating tube method.
Data set [2] can be described thus: refractive index (Na D-line) (dimensionless); xn = mol fraction of the nth substance listed. The following applies: 298.15 K, 86.6 kPa, Liquid, Standard Abbe refractometry.

Numbers after ± are expanded uncertainties.

Take `O=C(O)C(=O)O` [ethanedioic acid] + C[N+](C)(C)CCO.[Cl-]: in data set [1] (x2 = 0.5), the speed of sound (commonly how fast a sound wave travels through the sample) was 1925 ± 1.7 m/s and the mass density (usually the mass of a sample divided by its volume) is 1210.93 ± 0.5 kg/m3. Besides, in data set [2] (x2 = 0.5), the refractive index (as a rule, the speed of light in vacuum divided by its phase velocity in the sample) was 1.4809 ± 0.0005.
Take `O=C(O)CC(=O)O` [propanedioic acid] + C[N+](C)(C)CCO.[Cl-]: in data set [1] (x2 = 0.5), the speed of sound is 1962.7 ± 1.7 m/s and the mass density amounted to 1251.47 ± 0.54 kg/m3. Moreover, in data set [2] (x2 = 0.5), the refractive index was 1.4887 ± 0.0005.
As to `NC(N)=O` [urea] + C[N+](C)(C)CCO.[Cl-], in data set [1] (x2 = 0.333), the speed of sound amounted to 2062.3 ± 2.2 m/s and the mass density is recorded as 1193.93 ± 0.94 kg/m3. Further, the refractive index in data set [2] (x2 = 0.333) stood at 1.5041 ± 0.0006.
